Laboratory results taken from US8057810B2, “Peptide substance revealing an immunogeroprotective effect, pharmaceutical composition on its base and the method of its application” (priority 2006, dated 2011).
Residues, ends and D or L forms follow the SMILES beside them.

Experiments:
[1] = system: old rats' spleen explants; experiment: Development of spleen explants taken from old rats (area index); type: cell-based; settings: 10 ng/ml
Description: (§1) The experiments were staged on 35 fragments of the thymus and 45 fragments of the spleen taken from rats aged 24 months. Nutritional medium for cultivation consisted of 35% Eagle's solution, 25% calf fetal serum, 35% Hanx solution, 5% chicken embryonic extract, with the addition of glucose (0.6%), insulin (0.5 U/ml), penicillin (100 U/ml), glutamin (2 mM). […]
(§2) Peptide H-Glu-Asp-Pro-OH was added into the experimental medium in concentrations of 0.5, 10 and 100 ng/ml.
(§3) Area index (AI)—the ratio of total explant area including the growth zone to the initial area of thymus or spleen fragment was used as a criterion for measuring the biological activity. AI values were expressed in percent, control AI value being taken as 100%.

white mongrel male rats = experiment: Subacute toxicity, 90 days intramuscular; type: in vivo; settings: i.m. daily for 90 days, 1 μg/kg, 0.1 mg/kg, 1 mg/kg (100-1000 times the therapeutic dose)
Description: (§4) Common toxicity of H-Glu-Asp-Pro-OH was studied according to the requirements stated in the “Manual for experimental (pre-clinical) study of new pharmacological substances” (2005): acute toxicity in case of single administration of the substance and sub-acute and chronic toxicity in case of long-term administration of the peptide.
(§5) The study of acute toxicity was performed on 60 white mongrel male mice with body weight of 18-21 g. The animals were randomly subdivided into 6 equal groups. The substance was administered to the animals once, intramuscularly, in the doses of 1 mg/kg, 2 mg/kg, 3 mg/kg, 4 mg/kg, 5 mg/kg in 0.25 ml of sterile 0.9% NaCl solution. The control animals received 0.9% NaCl solution in the same volume. The study of subacute toxicity was performed on 50 white mongrel male rats with body weight of 170-210 g. Experimental animals received the substance daily, intramuscularly for 90 days in the doses of 1 μg/kg, 0.1 mg/kg, 1 mg/kg in 0.5 ml of sterile 0.9% NaCl solution. […] Upon completion of the experiment biochemical and coagulologic indices of the blood were also evaluated. […] Traditional methods were used for the evaluation of the following indices of the animals' peripheric blood: the quantity of erythrocytes, hemoglobin, reticulocytes, thrombocytes, leukocytes, leukocyte formula, erythrocyte sedimentation rate (ESR), erythrocyte resistance. […]

white mongrel male mice = experiment: Acute toxicity, single intramuscular administration; type: in vivo; settings: single i.m. 1-5 mg/kg, dose exceeding the therapeutic one by more than 5000 times
Description: as §4, §5

[2] = system: old rats' thymus explants; experiment: Development of thymus explants taken from old rats (area index); type: cell-based; settings: 0.5 ng/ml; 3rd day of cultivating; rats aged 24 months
Description: as §1, §2, §3

peritoneal macrophages = experiment: Production of lymphocyte activation factors (LAF) by peritoneal macrophages; type: cell-based, mice
Text: The peculiarities of LAF production by peritoneal macrophages in young and ageing mice, as well as the influence of peptide H-Glu-Asp-Pro-OH on this index were studied. LAF activity of the macrophages was estimated judging by their ability to exert a comitogenic effect on the proliferation of thymocytes, stimulated by suboptimal lectin doses in vitro.
The same tendency to the change in LAF production by macrophages was observed under the effect of peptide H-Glu-Asp-Pro-OH in young mice, but not in the whole range of studied concentrations.

[3] = system: thymus epithelium cells, line VTEC2.H/S; experiment: Proliferation of thymus epithelium cells in ageing cultures (3H-thymidin); type: cell-based, human; design: unit not given here
Description: The study was staged in vitro in the culture of thymus epithelium cells, which were represented by cells of suspension line VTEC2.H/S, obtained by transforming thymus epithelial cells of human embryo thymus with the material containing SV40 virus, and subsequent cloning of transformed cells.
Peptide H-Glu-Asp-Pro-OH was introduced into cell cultures in successive dilutions to ultimate concentrations of 2, 20 and 200 ng/ml. Proliferation of thymus epithelium cells subjected to 1, 4 and 7 passages was estimated using a radiometrical method, judging by the content of ^3H-thymidin.

[4] = ageing mice 19-20 months, 0.5 to 500 ng/ml

## N[C@@H](CCC(=O)O)C(=O)N[C@@H](CC(=O)O)C(=O)N1CCC[C@H]1C(=O)O [Peptide H-Glu-Asp-Pro-OH, glutamyl-aspartyl-proline] (H-Glu-Asp-Pro-OH)
[1]; 7th day
  Stimulating effect on spleen explants at longer term: still visible, although it was less pronounced
[1]; rats aged 24 months
  Area index (AI) in spleen explants, increase: 28%
White mongrel male rats
  Subacute toxicity: side effects: absence of any side effects
White mongrel male mice
  Acute toxicity: toxic reactions: does not cause toxic reactions
[2]
  Area index (AI) in thymus explants, increase as compared to the control AI: 24%
Peritoneal macrophages; [4]
  LAF production by non-stimulated peritoneal macrophages: induces the production of LAF
  LAF production under the effect of LPS: increases the production of LAF
Peritoneal macrophages; young mice 2 months, not in the whole range of studied concentrations
  Change in LAF production by macrophages: same tendency
[3]; 2 ng/ml, 1st passage
  Proliferation of thymus epithelial cells (3H-thymidin content): 1480 ± 89
[3]; 2 ng/ml, 4th passage
  Proliferation of thymus epithelial cells (3H-thymidin content): 730 ± 54
[3]; 2 ng/ml, 7th passage
  Proliferation of thymus epithelial cells (3H-thymidin content): 705 ± 46
[3]; 20 ng/ml, 1st passage
  Proliferation of thymus epithelial cells (3H-thymidin content): 1585 ± 95
[3]; 20 ng/ml, 4th passage
  Proliferation of thymus epithelial cells (3H-thymidin content): 680 ± 48
[3]; 20 ng/ml, 7th passage
  Proliferation of thymus epithelial cells (3H-thymidin content): 680 ± 41
[3]; 200 ng/ml, 1st passage
  Proliferation of thymus epithelial cells (3H-thymidin content): 1530 ± 91
[3]; 200 ng/ml, 4th passage
  Proliferation of thymus epithelial cells (3H-thymidin content): 760 ± 58
[3]; 200 ng/ml, 7th passage
  Proliferation of thymus epithelial cells (3H-thymidin content): 795 ± 49
